Measured values published in US20090304692A1, “TRIAZINE COMPOUNDS AS PI3 KINASE AND MTOR INHIBITORS” (Wyeth, priority 2008, published 2009).
Read-outs that look alike come from different tables or passages of the source.

What was measured:
PI3K-γ = PI3K-γ (Homo sapiens, UniProt P48736); test: PI3K-gamma fluorescence polarization assay
PI3K-α = PI3K-α (Homo sapiens, UniProt P42336); test: PI3K-alpha fluorescence polarization assay; conditions: read-out: IC50 PI3Kα
Sequence of PI3K-α (P42336 whole entry, species assumed): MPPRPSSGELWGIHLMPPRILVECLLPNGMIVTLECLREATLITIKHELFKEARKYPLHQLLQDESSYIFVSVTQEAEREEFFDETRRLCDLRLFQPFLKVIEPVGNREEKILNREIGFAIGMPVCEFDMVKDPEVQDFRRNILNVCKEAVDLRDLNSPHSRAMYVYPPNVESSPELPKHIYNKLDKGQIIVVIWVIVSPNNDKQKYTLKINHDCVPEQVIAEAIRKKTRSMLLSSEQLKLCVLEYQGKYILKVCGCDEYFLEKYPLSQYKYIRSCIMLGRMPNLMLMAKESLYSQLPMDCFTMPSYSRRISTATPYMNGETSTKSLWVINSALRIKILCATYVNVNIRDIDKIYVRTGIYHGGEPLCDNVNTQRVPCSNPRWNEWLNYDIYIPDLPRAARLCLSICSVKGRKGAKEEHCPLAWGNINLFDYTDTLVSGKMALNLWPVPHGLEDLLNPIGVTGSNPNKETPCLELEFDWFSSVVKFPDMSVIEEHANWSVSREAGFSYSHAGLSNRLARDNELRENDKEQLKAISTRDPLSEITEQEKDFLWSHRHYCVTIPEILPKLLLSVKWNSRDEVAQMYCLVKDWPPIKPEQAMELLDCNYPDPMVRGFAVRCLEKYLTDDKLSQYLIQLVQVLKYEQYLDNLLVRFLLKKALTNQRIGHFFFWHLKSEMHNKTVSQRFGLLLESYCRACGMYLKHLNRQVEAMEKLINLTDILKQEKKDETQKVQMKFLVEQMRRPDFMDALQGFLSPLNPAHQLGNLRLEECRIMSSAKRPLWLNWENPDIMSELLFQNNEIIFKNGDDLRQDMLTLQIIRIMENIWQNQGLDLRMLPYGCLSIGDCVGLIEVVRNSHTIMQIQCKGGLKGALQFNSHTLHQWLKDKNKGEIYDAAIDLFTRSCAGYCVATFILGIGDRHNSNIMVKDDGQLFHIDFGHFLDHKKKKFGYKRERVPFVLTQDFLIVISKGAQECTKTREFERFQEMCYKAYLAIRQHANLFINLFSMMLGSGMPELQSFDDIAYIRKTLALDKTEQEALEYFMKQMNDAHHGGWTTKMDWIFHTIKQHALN
Sequence of PI3K-α (P27986 whole entry partner, species assumed): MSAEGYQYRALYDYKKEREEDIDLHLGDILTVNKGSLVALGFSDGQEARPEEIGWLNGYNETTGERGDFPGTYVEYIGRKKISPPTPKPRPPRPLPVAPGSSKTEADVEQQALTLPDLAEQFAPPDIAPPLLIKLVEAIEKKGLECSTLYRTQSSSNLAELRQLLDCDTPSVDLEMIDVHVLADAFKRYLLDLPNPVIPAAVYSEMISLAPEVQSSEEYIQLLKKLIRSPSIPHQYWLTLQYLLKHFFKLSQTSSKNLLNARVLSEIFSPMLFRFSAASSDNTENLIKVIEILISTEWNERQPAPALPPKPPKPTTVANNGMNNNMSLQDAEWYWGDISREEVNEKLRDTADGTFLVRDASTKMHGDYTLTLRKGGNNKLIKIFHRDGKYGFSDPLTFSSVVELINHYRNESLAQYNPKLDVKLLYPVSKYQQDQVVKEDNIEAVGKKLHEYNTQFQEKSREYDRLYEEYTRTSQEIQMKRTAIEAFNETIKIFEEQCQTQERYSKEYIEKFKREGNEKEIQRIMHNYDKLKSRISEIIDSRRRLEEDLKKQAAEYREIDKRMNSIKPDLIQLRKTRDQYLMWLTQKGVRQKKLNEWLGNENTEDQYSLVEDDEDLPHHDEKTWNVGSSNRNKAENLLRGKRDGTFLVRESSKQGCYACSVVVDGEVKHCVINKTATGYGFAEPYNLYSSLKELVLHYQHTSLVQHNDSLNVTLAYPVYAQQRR

Sequence of PI3K-γ (P48736 whole entry, species assumed): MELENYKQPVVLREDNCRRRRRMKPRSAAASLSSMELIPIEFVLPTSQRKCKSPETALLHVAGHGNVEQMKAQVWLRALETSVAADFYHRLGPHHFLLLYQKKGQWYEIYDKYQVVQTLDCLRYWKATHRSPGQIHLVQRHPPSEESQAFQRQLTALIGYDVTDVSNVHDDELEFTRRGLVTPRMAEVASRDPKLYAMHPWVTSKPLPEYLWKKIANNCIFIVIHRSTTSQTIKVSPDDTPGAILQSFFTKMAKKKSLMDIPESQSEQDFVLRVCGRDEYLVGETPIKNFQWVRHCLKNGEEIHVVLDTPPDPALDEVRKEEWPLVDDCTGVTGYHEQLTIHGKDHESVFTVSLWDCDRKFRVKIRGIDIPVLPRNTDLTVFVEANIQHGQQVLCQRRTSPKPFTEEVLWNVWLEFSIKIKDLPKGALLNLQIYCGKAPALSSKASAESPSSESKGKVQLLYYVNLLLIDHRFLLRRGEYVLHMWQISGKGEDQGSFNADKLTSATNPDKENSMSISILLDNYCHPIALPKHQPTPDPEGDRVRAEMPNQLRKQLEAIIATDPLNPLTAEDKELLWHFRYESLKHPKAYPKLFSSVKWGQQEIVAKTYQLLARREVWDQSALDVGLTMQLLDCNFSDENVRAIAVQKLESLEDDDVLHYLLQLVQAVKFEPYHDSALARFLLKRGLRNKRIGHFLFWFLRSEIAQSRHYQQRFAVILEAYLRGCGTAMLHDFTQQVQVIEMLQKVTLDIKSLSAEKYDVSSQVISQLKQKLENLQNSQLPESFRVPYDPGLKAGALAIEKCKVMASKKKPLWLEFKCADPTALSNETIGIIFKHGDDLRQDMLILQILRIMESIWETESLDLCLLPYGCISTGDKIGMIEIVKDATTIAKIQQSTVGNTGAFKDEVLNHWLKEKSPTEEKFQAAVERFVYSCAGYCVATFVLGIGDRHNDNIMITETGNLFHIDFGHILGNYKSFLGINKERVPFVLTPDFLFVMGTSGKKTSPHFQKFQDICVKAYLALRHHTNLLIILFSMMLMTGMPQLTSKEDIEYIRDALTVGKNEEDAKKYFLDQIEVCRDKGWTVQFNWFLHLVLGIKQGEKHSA

SMILES	IC50 (PI3K-γ; read-out: IC50 PI3Kγ) [nM]	other results
CN1CCN(c2ccc(NC(=O)Nc3ccc(-c4nc(N5CCSCC5)nc(N5C6CCC5COC6)n4)cc3)cc2)CC1 [Example 394, 1-(4-(4-(3-oxa-8-azabicyclo[3.2.1]octan-8-yl)-6-thiomorpholino-1,3,5-triazin-2-yl)phenyl)-3-(4-(4-methylpiperazin-1-yl)phenyl)urea]	3230	
CC(C)Nc1nc(-c2ccc(NC(=O)Nc3ccc(N4CCN(C)CC4)cc3)cc2)nc(N2C3CCC2COC3)n1 [Example 378, 1-(4-(4-(3-oxa-8-azabicyclo[3.2.1]octan-8-yl)-6-(isopropylamino)-1,3,5-triazin-2-yl)phenyl)-3-(4-(4-methylpiperazin-1-yl)phenyl)urea]	5380	
CCN1CCN(c2ccc(NC(=O)Nc3ccc(-c4nc(N5C6CCC5COC6)nc(N5CCOC[C@H]5C)n4)cc3)cc2)CC1 [Example 440, 1-(4-(4-(3-oxa-8-azabicyclo[3.2.1]octan-8-yl)-6-((R)-3-methylmorpholino)-1,3,5-triazin-2-yl)phenyl)-3-(4-(4-ethylpiperazin-1-yl)phenyl)urea]		IC50 (PI3K-γ): > 10000 nM
CC(C)N(C)c1nc(-c2ccc(NC(=O)Nc3ccc(N4CCN(C)CC4)cc3)cc2)nc(N2C3CCC2COC3)n1 [Example 389, 1-(4-(4-(3-oxa-8-azabicyclo[3.2.1]octan-8-yl)-6-(isopropyl(methyl)amino)-1,3,5-triazin-2-yl)phenyl)-3-(4-(4-methylpiperazin-1-yl)phenyl)urea]	5660	
CN1CCN(c2ccc(NC(=O)Nc3ccc(-c4nc(C5CCOCC5)nc(N5C6CCC5COC6)n4)cc3)cc2)CC1 [Example 407, 1-(4-(4-(3-oxa-8-azabicyclo[3.2.1]octan-8-yl)-6-(tetrahydro-2H-pyran-4-yl)-1,3,5-triazin-2-yl)phenyl)-3-(4-(4-methylpiperazin-1-yl)phenyl)urea]	2260	
C[C@H]1COCCN1c1nc(-c2ccc(NC(=O)Nc3ccc(C(=O)N4CCNCC4)cc3)cc2)nc(N2C3CCC2COC3)n1 [Example 838, 1-(4-{4-[(3S)-3-methylmorpholin-4-yl]-6-(3-oxa-8-azabicyclo[3.2.1]oct-8-yl)-1,3,5-triazin-2-yl}phenyl)-3-[4-(piperazin-1-ylcarbonyl)phenyl]urea]	69.5	IC50 (PI3K-α): 4 nM
Cc1ccc(-c2nc(-c3ccc(NC(=O)Nc4cccc(C(=O)O)c4)cc3)nc(N3CCOCC3)n2)cc1 [Example 577, 3-[({4-[4-(4-methylphenyl)-6-morpholin-4-yl-1,3,5-triazin-2-yl]phenyl}carbamoyl)amino]benzoic acid]	104	IC50 (PI3K-α): 63 nM
O=C(Nc1ccc(C(=O)N2CCC(N3CCCC3)CC2)cc1)Nc1ccc(-c2nc(N3CCOCC3)nc(N3C[C@@H]4C[C@H]3CO4)n2)cc1 [Example 210, 1-(4-{4-morpholin-4-yl-6-[(1S,4S)-2-oxa-5-azabicyclo[2.2.1]hept-5-yl]-1,3,5-triazin-2-yl}phenyl)-3-{4-[(4-pyrrolidin-1-ylpiperidin-1-yl)carbonyl]phenyl}urea]	31	IC50 (PI3K-α): 6 nM
C[C@@H]1COCCN1c1nc(-c2ccc(NC(=O)Nc3ccc(C(=O)N4CCN(C)CC4)cc3)cc2)nc(N2C3CCC2COC3)n1 [Example 444, 1-(4-(4-(3-oxa-8-azabicyclo[3.2.1]octan-8-yl)-6-((R)-3-methylmorpholino)-1,3,5-triazin-2-yl)phenyl)-3-(4-(4-methylpiperazine-1-carbonyl)phenyl)urea]	1100	
C[C@H]1COCCN1c1nc(-c2ccc(NC(=O)Nc3ccc(C(=O)N4CCN(C)CC4)cc3)cc2)nc(N2C3CCC2COC3)n1 [Example 835, 1-(4-{4-[(3S)-3-methylmorpholin-4-yl]-6-(3-oxa-8-azabicyclo[3.2.1]oct-8-yl)-1,3,5-triazin-2-yl}phenyl)-3-{4-[(4-methylpiperazin-1-yl)carbonyl]phenyl}urea]	66	
CC(C)N1CCN(c2ccc(NC(=O)Nc3ccc(-c4nc(N5C6CCC5COC6)nc(N5CCOC[C@H]5C)n4)cc3)cc2)CC1 [Example 441, 1-(4-(4-(3-oxa-8-azabicyclo[3.2.1]octan-8-yl)-6-((R)-3-methylmorpholino)-1,3,5-triazin-2-yl)phenyl)-3-(4-(4-isopropylpiperazin-1-yl)phenyl)urea]		IC50 (PI3K-γ): > 10000 nM
CCN1CCN(c2ccc(NC(=O)Nc3ccc(-c4nc(C5CCOCC5)nc(N5C6CCC5COC6)n4)cc3)cc2)CC1 [Example 434, 1-(4-(4-(3-oxa-8-azabicyclo[3.2.1]octan-8-yl)-6-(tetrahydro-2H-pyran-4-yl)-1,3,5-triazin-2-yl)phenyl)-3-(4-(4-ethylpiperazin-1-yl)phenyl)urea]	4740	
CN1CCN(C(=O)c2ccc(NC(=O)Nc3ccc(-c4nc(C5CCOCC5)nc(N5C6CCC5COC6)n4)cc3)cc2)CC1 [Example 438, 1-(4-(4-(3-oxa-8-azabicyclo[3.2.1]octan-8-yl)-6-(tetrahydro-2H-pyran-4-yl)-1,3,5-triazin-2-yl)phenyl)-3-(4-(4-methylpiperazine-1-carbonyl)phenyl)urea]	663	
CN(C)[C@H]1CCN(C(=O)c2ccc(NC(=O)Nc3ccc(-c4nc(N5CCOCC5)nc(N5C6CCC5COC6)n4)cc3)cc2)C1 [Example 516, 1-(4-{[(3S)-3-(dimethylamino)pyrrolidin-1-yl]carbonyl}phenyl)-3-{4-[4-morpholin-4-yl-6-(3-oxa-8-azabicyclo[3.2.1]oct-8-yl)-1,3,5-triazin-2-yl]phenyl}urea]	17	IC50 (PI3K-α): 2.1 nM; IC50 (PI3K-α; listed as 824): 2 nM; IC50 (PI3K-α; listed as 827): 2.15 nM
C[C@@H]1COCCN1c1nc(-c2ccc(NC(=O)Nc3ccc(N4CCN(C)CC4)nc3)cc2)nc(C2CCOCC2)n1 [Example 433, (R)-1-(4-(4-(3-methylmorpholino)-6-(tetrahydro-2H-pyran-4-yl)-1,3,5-triazin-2-yl)phenyl)-3-(6-(4-methylpiperazin-1-yl)pyridin-3-yl)urea]	1510	IC50 (PI3K-α): 220 nM
Cc1nc(-c2ccc(NC(=O)Nc3ccc(C(=O)NC4CCN(C)CC4)cc3)cc2)nc(N2CCOCC2)n1 [Example 164, 4-({[4-(4-methyl-6-morpholin-4-yl-1,3,5-triazin-2-yl)phenyl]carbamoyl}amino)-N-(1-methylpiperidin-4-yl)benzamide]	1380	IC50 (PI3K-α): 378 nM
CN(C)CCOc1ccc(NC(=O)Nc2ccc(-c3nc(N4C5CCC4COC5)nc(N4C5CCC4COC5)n3)cc2)cc1 [Example 289, 1-{4-[2-(dimethylamino)ethoxy]phenyl}-3-[4-(4,6-di-3-oxa-8-azabicyclo[3.2.1]oct-8-yl-1,3,5-triazin-2-yl)phenyl]urea]	3880	
CC(C)N1CCN(C(=O)c2ccc(NC(=O)Nc3ccc(-c4nc(N5C6CCC5COC6)nc(N5CCOC[C@@H]5C)n4)cc3)cc2)CC1 [Example 830, 1-(4-{4-[(3S)-3-methylmorpholin-4-yl]-6-(3-oxa-8-azabicyclo[3.2.1]oct-8-yl)-1,3,5-triazin-2-yl}phenyl)-3-(4-{[4-(propan-2-yl)piperazin-1-yl]carbonyl}phenyl)urea]	70.5	
CC(C)N1CCN(C(=O)c2ccc(NC(=O)Nc3ccc(-c4nc(N5C6CCC5COC6)nc(N5CCOC[C@H]5C)n4)cc3)cc2)CC1 [Example 445, 1-(4-(4-(3-oxa-8-azabicyclo[3.2.1]octan-8-yl)-6-((R)-3-methylmorpholino)-1,3,5-triazin-2-yl)phenyl)-3-(4-(4-isopropylpiperazine-1-carbonyl)phenyl)urea]	1000	
CN1CCN(c2ccc(NC(=O)Nc3ccc(-c4nc(N5C[C@@H]6C[C@H]5CO6)nc(N5C[C@@H]6C[C@H]5CO6)n4)cc3)cc2)CC1 [Example 312, 1-{4-[4,6-di-(1S,4S)-2-oxa-5-azabicyclo[2.2.1]hept-5-yl-1,3,5-triazin-2-yl]phenyl}-3-[4-(4-methylpiperazin-1-yl)phenyl]urea]	10000	IC50 (PI3K-α): 3440 nM
O=C(Nc1ccncc1)Nc1ccc(-c2nc(NS(=O)(=O)c3ccccc3)nc(N3CCOCC3)n2)cc1 [Example 781, N-(4-morpholin-4-yl-6-{4-[(pyridin-4-ylcarbamoyl)amino]phenyl}-1,3,5-triazin-2-yl)benzenesulfonamide]	374	IC50 (PI3K-α): 136 nM
O=C(Nc1ccc(OCCO)cc1)Nc1ccc(-c2nc(N3C4CCC3COC4)nc(N3C4CCC3COC4)n2)cc1 [Example 372, 1-(4-(4,6-di(3-oxa-8-azabicyclo[3.2.1]octan-8-yl)-1,3,5-triazin-2-yl)phenyl)-3-(4-(2-hydroxyethoxy)phenyl)urea]	7240	
O=C(Nc1ccc(CO)cc1)Nc1ccc(-c2nc(N3C4CCC3COC4)nc(N3C4CCC3COC4)n2)cc1 [Example 287, 1-[4-(4,6-di-3-oxa-8-azabicyclo[3.2.1]oct-8-yl-1,3,5-triazin-2-yl)phenyl]-3-[4-(hydroxymethyl)phenyl]urea]	3300	
CN1CCN(c2ccc(NC(=O)Nc3ccc(-c4nc(C5=CCOCC5)nc(N5C6CCC5COC6)n4)cc3)cc2)CC1 [Example 405, 1-(4-(4-(3-oxa-8-azabicyclo[3.2.1]octan-8-yl)-6-(3,6-dihydro-2H-pyran-4-yl)-1,3,5-triazin-2-yl)phenyl)-3-(4-(4-methylpiperazin-1-yl)phenyl)urea]	193	
CN(C)C1CCN(c2ccc(NC(=O)Nc3ccc(-c4nc(C5CCOCC5)nc(N5C6CCC5COC6)n4)cc3)cc2)CC1 [Example 437, 1-(4-(4-(3-oxa-8-azabicyclo[3.2.1]octan-8-yl)-6-(tetrahydro-2H-pyran-4-yl)-1,3,5-triazin-2-yl)phenyl)-3-(4-(4-(dimethylamino)piperidin-1-yl)phenyl)urea]	1610	
C[C@@H]1COCCN1c1nc(-c2ccc(NC(=O)Nc3ccc(OCCN(C)C)cc3)cc2)nc(N2C3CCC2COC3)n1 [Example 419, 1-(4-(4-(3-oxa-8-azabicyclo[3.2.1]octan-8-yl)-6-((R)-3-methylmorpholino)-1,3,5-triazin-2-yl)phenyl)-3-(4-(2-(dimethylamino)ethoxy)phenyl)urea]	4270	
CNCc1ccc(NC(=O)Nc2ccc(-c3nc(N4C5CCC4COC5)nc(N4C5CCC4COC5)n3)cc2)cc1 [Example 288, 1-[4-(4,6-di-3-oxa-8-azabicyclo[3.2.1]oct-8-yl-1,3,5-triazin-2-yl)phenyl]-3-{4-[(methylamino)methyl]phenyl}urea]	2780	
